This note sets out measurements from the OPERA property sets (Mansouri et al. 2018).

For orientation: logP means a log measure of how a compound divides between an organic and an aqueous phase. Higher therefore signals a more lipophilic compound.

The structures appear in SMILES notation.

In turn, `CNC(=O)ON=C1COCS1` returned a logP of 0.06.
The same measure for `CNC(=O)ON=C1SCOC1C` (centres undefined): 0.46; for `CNC(=O)ON=C1SCOC1CCOC` (centres undefined): 0.51; for `CCCC1OCSC1=NOC(=O)NC` (centres undefined): 1.52.
Molecule `CNC(=O)ON=C1CSC(C)(C)S1` yielded a logP of 1.33.
The same measure for `CNC(=O)ON=C1SCSC1(C)C`: 1.31; for `CNC(=O)ON=C1CSCS1`: 0.51; for `CNC(=O)ON=C1SCOC1(C)C`: 0.82.
`CNC(=O)ON=C1CSCCS1` yielded a logP of 0.49.
`CNC(=O)ON=C1COCCS1` returned a logP of 0.
Take `CNC(=O)ON=C1SC(C)OC1C` (centres undefined): the logP amounted to 0.96.
The same measure for `CNC(=O)ON=C1SCSC1C` (centres undefined): 0.91.
The same measure for `CNC(=O)ON=C1SCOC1C(C)C` (centres undefined): 1.48; for `CNC(=O)ON=C1SCCSC1(C)C`: 1.51.
